Measurements reported in patent US20050256179A1, “Selective pharmacologic inhibition of protein trafficking and related methods of treating human diseases” (priority 2003, published 2005).
In brackets after ≈: the same amount, converted by molar mass. Where two headings read alike, the source gives them in different places.

Key:
Assay in all cases: Inhibition of tumor cell proliferation in vitro (SRB total protein)
Type in all cases: cell-based
HCC 1806 = settings: Homo sapiens, HCC1806, 72 h, in-house head-to-head, about 72 hours, read-out: IC50
Procedure: (§1) For a typical screening experiment, cells are inoculated into 96 well microtiter plates in 100 μl at plating densities ranging from 5,000 to 40,000 cells/well depending on the doubling time of individual cell lines. After cell inoculation, the microtiter plates are incubated at 37° C., 5% or 10% CO2—depending on the cell line and media—95% air and 100% relative humidity for 24 h prior to addition of experimental drugs. After 24 h, two plates of each cell line are fixed in situ with TCA, to represent a measurement of the cell population for each cell line at the time of drug addition. Following drug addition, the plates are incubated for an additional 48 h at 37° C., 5%/10% CO2, 95% air, and 100% relative humidity. For adherent cells, the assay is terminated by the addition of cold TCA. Cells are fixed in situ by the gentle addition of 50 μl of cold 50% (w/v) TCA (final concentration, 10% TCA) and incubated for 60 minutes at 4° C. The supernatant is discarded, and the plates are washed five times with tap water and air-dried. Sulforhodamine B (SRB) solution (10011) at 0.4% (w/v) in 1% acetic acid is added to each well, and plates are incubated for 10 minutes at room temperature. After staining, unbound dye is removed by washing five times with 1% acetic acid and the plates are air-dried. Bound stain is subsequently solubilized with 10 mM trizma base, and the absorbance is read on an automated plate reader at a wavelength of 515 nm. For suspension cells, the methodology is the same except that the assay is terminated by fixing settled cells at the bottom of the wells by gently adding 50 μl of 80% TCA (final concentration, 16% TCA). Using the seven absorbance measurements [time zero, control growth, and test growth in the presence of drug at the five concentration levels], the percentage growth is calculated at each of the drug concentrations levels.
(§2) Brefeldin A was tested by the NCI for inhibition of tumor cell proliferation in the 60-cell screen. The NCI 60-cell screen was performed essentially as described for FIG. 9. Data available from the NCI database for Brefeldin A was compared with more recent AVP 893 data. […] Several tumor cell lines were cultured in the presence of either AVP 893 or Brefeldin A for about 72 hours before assessing proliferation response by measuring total protein (SRB), as described for FIG. 9. The results of the head-to-head comparisons performed in-house also show substantial variation in the relative proliferative responses of cells to Brefeldin A and AVP 893 in vitro (TABLE 3).

Hs578T = settings: Homo sapiens, Hs-578T
Procedure: as §1, §2

MOLT-4 = settings: Homo sapiens
Procedure: as §1, §2

NCI H-460 = settings: Homo sapiens
Procedure: as §1, §2

OVCAR3 = settings: Homo sapiens
Procedure: as §1, §2

SW480 = settings: Homo sapiens, column Avanir, read-out: IC50 (ng/ml), Avanir
Procedure: as §1, §2

[1] = column Avanir, read-out: IC50 (ng/ml), Avanir
[2] = column NCI, read-out: IC50 (ng/ml), NCI
[3] = in-house head-to-head, about 72 hours, SRB, read-out: IC50

For `O=C(Nc1ccc(-c2nc3cc(NC(=O)C4CCCCC4)ccc3[nH]2)cc1)C1CCCCC1` [AVP 893], the IC50 (HCC 1806) was 4 ng/mL (≈ 9 nM), the IC50 (Hs578T; [1]) was 2 ng/mL (≈ 4.5 nM) and the IC50 (Hs578T; [2]) was < 10 ng/mL. For the same compound, the IC50 (Hs578T; [3]) was < 1 ng/mL, the IC50 (MOLT-4; [1]) was 0.001 ng/mL (≈ 0.00225 nM) and the IC50 (MOLT-4; [2]) was < 10 ng/mL. For the same compound, the IC50 (MOLT-4; [3]) was 30 ng/mL (≈ 67.5 nM), the IC50 (NCI H-460; NCI-H460, column Avanir, read-out: IC50 (ng/ml), Avanir) was > 2000 ng/mL and the IC50 (NCI H-460; NCI-H460, column NCI, read-out: IC50 (ng/ml), NCI) was 400 ng/mL (≈ 900 nM). For the same compound, the IC50 (NCI H-460; NCI-H460, in-house head-to-head, about 72 hours, SRB, read-out: IC50) was > 3000 ng/mL, the IC50 (OVCAR3; OVCAR-3, column Avanir, read-out: IC50 (ng/ml), Avanir) was 200 ng/mL (≈ 450 nM) and the IC50 (OVCAR3; OVCAR-3, column NCI, read-out: IC50 (ng/ml), NCI) was 1000 ng/mL (≈ 2250 nM). The IC50 (SW480) was 1500 ng/mL (≈ 3370 nM).
